Assays:
[1] = tested on: rhabdomyosarcoma cell line RH4; experiment: cell growth test based on Methyl violet staining, RH4; details: for anti-proliferative activity (cell growth in percentage with respect to vehicle-treated cells): 10 microM, 5 days of incubation, compared with Vismodegib (FIG. 1)
Experimental: (§1) FIG. 1 represents the effects in percentage with respect to vehicle-treated cells (DMSO) of five compounds according to formula (I) (IUCT-0460, IUCT-0462, IUCT-0463, IUCT-0467, IUCT-0469) and the reference compound Vismodegib on cell growth of RH4 rhabdomyosarcoma cells after 5 day incubation (mean+/−SD). All compounds were used at a concentration of 10 microM. Statistical analysis was performed using ANOVA. As statistical differences were observed (p=0), the pairwise comparison against the vehicle control was made using the Tukey test. Notation: ***=statistically-significant difference with a p-value<0.001, **=p-value<0.01 and *=p-value<0.05.
(§2) The measurements were taken using an in vitro test to measure cell growth based on Methyl violet staining after 5 days of incubation with the aforementioned drugs or control vehicle (DMSO). The procedure was carried out in a 96-well plate and cells were fixed for 30 minutes with 4% paraformaldehyde (PFA) at room temperature. After 3 washes with phosphate-buffered saline (PBS), cells were stained for 30 minutes at room temperature with Methyl violet (dilution 1/25 of a stock solution made with 1.5% w/v in PBS). After 5 washes, and the addition of acetic acid (15% in water), plates were read in a spectrophotometer at 590 nm. All conditions were tested in 8 independent wells and results expressed as a mean of all replicates (FIG. 1).
Additional measurements using the same procedure were made specifically for the compound IUCT-0463 to obtain a dose-response curve from 1 to 50 μM in the cell line RH4.

[2] = tested on: rhabdomyosarcoma cell line RD; experiment: cell growth test based on Methyl violet staining, RD; details: RD cells; for anti-proliferative activity (cell growth in percentage with respect to the vehicle control): 10 microM, 5 days of incubation, compared with Vismodegib (FIG. 3)
Experimental: as §1, with “FIG. 3” for “FIG. 1”, “effects (in” for “effects in”, “to the vehicle control DMSO)” for “to vehicle-treated cells (DMSO)”, “of RD” for “of RH4”
as §2, with “3).” for “1).”
Additional measurements using the same procedure were made specifically for the compound IUCT-0463 to obtain a dose-response curve from 1 to 50 μM in the cell line RD.

[3] = tested on: panel of cancer cell lines (RD, RH4, RH30, SKNBE2, SKNAS, U373MG, SKES1, TC71, PC3, HeLa, A549, MDA-MB231, HCT116); experiment: cell growth test based on Methyl violet staining, panel of cancer cell lines; details: panel of 13 cancer cell lines, 10 microM, 5 day incubation (FIG. 5)
Experimental: The cell lines analyzed are as follows: RD, RH4 and RH30 (rhabdomyosarcoma, RMS); SKNBE2 and SKNAS (neuroblastoma, NBL); U373MG (glioblastoma, GBL); SKES1 and TC71 (Ewing's sarcoma, EWING); PC3 (prostate cancer, PC); HeLa (epitheloid cervix carcinoma, ECC); A549 (lung cancer, LC); MDA-MB231 (breast cancer, BC) and HCT116 (colorectal cancer, CC). Statistical analysis was performed using ANOVA. As statistical differences were observed (p=0), the pairwise comparison against the vehicle control was made using the Tukey test. Notation: ***=statistically-significant difference with a p-value<0.001, **=p-value<0.01 and *=p-value<0.05.
With the compound showing a better cell growth reduction (IUCT-0463), additional tests were performed with the aim of studying the possible application of this family of compounds to other cancers. The procedure was carried out in a 96-well plate and cells were fixed for 30 minutes with 4% paraformaldehyde (PFA) at room temperature. After 3 washes with phosphate-buffered saline (PBS), cells were stained for 30 minutes at room temperature with Methyl violet (dilution 1/25 of a stock solution made with 1.5% w/v in PBS). After 5 washes, and the addition of acetic acid (15% in water), plates were read in a spectrophotometer at 590 nm.

CCOC(=O)CN(C1CCCN(c2ccc(-c3ccccc3OC)cc2F)C1=O)S(=O)(=O)c1ccc(-c2ccccn2)s1 (stereo not shown) [IUCT-0469, Ethyl N-(1-(3-fluoro-2′-methoxy-[1,1′-biphenyl]-4-yl)-2-oxopiperidin-3-yl)-N-((5-(pyridin-2-yl)thiophen-2-yl)sulfonyl)glycinate]
anti-proliferative activity (cell growth in percentage with respect to vehicle-treated cells) [1]: better anti-proliferative activity than the reference compound Vismodegib | anti-proliferative activity (cell growth in percentage with respect to the vehicle control) [2]: better anti-proliferative activity than the reference compound Vismodegib

COc1ccccc1-c1ccc(N2CCCC(NS(=O)(=O)c3ccc4c(c3)OCO4)C2=O)c(F)c1 (stereo not shown) [IUCT-0462, N-(1-(3-fluoro-2′-methoxy-[1,1′-biphenyl]-4-yl)-2-oxopiperidin-3-yl)benzo[d][1,3]dioxole-5-sulfonamide]
anti-proliferative activity (cell growth in percentage with respect to vehicle-treated cells) [1]: better anti-proliferative activity than the reference compound Vismodegib | anti-proliferative activity (cell growth in percentage with respect to the vehicle control) [2]: better anti-proliferative activity than the reference compound Vismodegib

COc1ccccc1-c1ccc(N2CCCC(NS(=O)(=O)c3ccc(-c4ccccn4)s3)C2=O)c(F)c1 (stereo not shown) [IUCT-0463, N-(1-(3-fluoro-2′-methoxy-[1,1′-biphenyl]-4-yl)-2-oxopiperidin-3-yl)-5-(pyridin-2-yl)thiophene-2-sulfonamide]
anti-proliferative activity (cell growth in percentage with respect to vehicle-treated cells) [1]: better anti-proliferative activity than the reference compound Vismodegib | anti-tumor activity, dose-response curve ([1]; RH4 cells, dose-response curve from 1 to 50 μM, compared with Vismodegib (FIG. 2)): clear improvement of the anti-tumor activity when compared to the reference compound Vismodegib | anti-proliferative activity (cell growth in percentage with respect to the vehicle control) [2]: better anti-proliferative activity than the reference compound Vismodegib | anti-tumor activity, dose-response curve ([2]; dose-response curve from 1 to 50 μM, compared with Vismodegib (FIG. 4)): clear improvement of the anti-tumor activity when compared to the reference compound Vismodegib | cell proliferation (cell growth in percentage with respect to the vehicle control) [3]: remarkable rediction of cell proliferation in the majority of the cell lines analized

COc1ccccc1-c1ccc(N2CCCC(NS(=O)(=O)c3cc(Cl)c(Cl)s3)C2=O)c(F)c1 (stereo not shown) [IUCT-0460, 4,5-Dichloro-N-(1-(3-fluoro-2′-methoxy-[1,1′-biphenyl]-4-yl)-2-oxopiperidin-3-yl)thiophene-2-sulfonamide]
anti-proliferative activity (cell growth in percentage with respect to vehicle-treated cells) [1]: better anti-proliferative activity than the reference compound Vismodegib | anti-proliferative activity (cell growth in percentage with respect to the vehicle control) [2]: better anti-proliferative activity than the reference compound Vismodegib

COc1ccccc1-c1ccc(N2CCCC(N(CC(=O)N3CCOCC3)S(=O)(=O)c3ccc4c(c3)OCO4)C2=O)c(F)c1 (stereo not shown) [IUCT-0467, N-(1-(3-fluoro-2′-methoxy-[1,1′-biphenyl]-4-yl)-2-oxopiperidin-3-yl)-N-(2-morpholino-2-oxoethyl)benzo[d][1,3]dioxole-5-sulfonamide]
anti-proliferative activity (cell growth in percentage with respect to vehicle-treated cells) [1]: better anti-proliferative activity than the reference compound Vismodegib | anti-proliferative activity (cell growth in percentage with respect to the vehicle control) [2]: better anti-proliferative activity than the reference compound Vismodegib

— patent US12006311B2, “Compounds for use in preventing or treating cancer” (FUNDACIÓ HOSPITAL UNIVERSITARI VALL D'HEBRON—INSTITUT DE …, priority 2018, dated 2024)
